The target of one data set is T1, human AhR (Homo sapiens, UniProt P35869).
T1 sequence (P35869 11-848): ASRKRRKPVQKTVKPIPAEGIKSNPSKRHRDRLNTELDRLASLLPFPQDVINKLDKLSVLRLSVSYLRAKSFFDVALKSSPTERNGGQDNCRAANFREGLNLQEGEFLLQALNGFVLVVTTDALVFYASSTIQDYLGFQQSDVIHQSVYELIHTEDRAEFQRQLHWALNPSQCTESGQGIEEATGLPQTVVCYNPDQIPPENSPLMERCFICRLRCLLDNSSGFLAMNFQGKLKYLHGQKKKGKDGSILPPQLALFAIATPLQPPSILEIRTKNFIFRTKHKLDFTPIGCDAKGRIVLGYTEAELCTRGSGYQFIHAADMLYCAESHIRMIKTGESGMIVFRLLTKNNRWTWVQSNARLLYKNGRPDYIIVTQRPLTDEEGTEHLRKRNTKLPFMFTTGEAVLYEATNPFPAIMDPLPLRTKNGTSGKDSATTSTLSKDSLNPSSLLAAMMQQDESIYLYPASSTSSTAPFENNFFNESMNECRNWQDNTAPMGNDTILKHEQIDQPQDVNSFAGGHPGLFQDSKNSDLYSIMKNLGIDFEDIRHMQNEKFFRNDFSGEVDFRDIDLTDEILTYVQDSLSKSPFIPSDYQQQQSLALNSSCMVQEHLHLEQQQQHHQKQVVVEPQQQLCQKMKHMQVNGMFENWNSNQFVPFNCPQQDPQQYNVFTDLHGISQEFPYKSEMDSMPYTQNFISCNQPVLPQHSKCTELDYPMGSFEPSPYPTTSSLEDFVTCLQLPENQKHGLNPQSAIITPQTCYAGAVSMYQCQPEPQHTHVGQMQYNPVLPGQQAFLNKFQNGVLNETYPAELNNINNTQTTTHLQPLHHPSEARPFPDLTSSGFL
In words: cyp1a1 promoter β-lactamase reporter gene assay for AhR activation (CYP1A1-bla-LS180 cells).

A short description of data set [1]: Photostability test of DMSO-d6 solutions by 1H NMR (maleic acid internal reference). The class given is physicochemical.
Procedure: Maleic acid was employed as an internal NMR reference.
The solution was analyzed by ^1H NMR as time point zero. 0.5 mL of the solution was placed into separate ICH 20 mL Flint clear glass bottles that were irradiated in a photostability chamber with illuminance set to 11000 lux as measured by a digital light meter. The contents of separate bottles were checked by ^1H NMR at 1 h, 2 h, 3 h, 4 h, 5 h, 7 h, 10 h, 16 h, and 24 h. […] A parallel experiment was run under the same conditions with ICZ (12.4 mg) and maleic acid (6.4 mg) in 5.1 mL of DMSO-d6 and stability data collected at 1 h, 2 h, 4 h, 6 h, 12 h, 18 h, and 24 h.
The solution was analyzed by ^1H NMR as time point zero. 0.5 mL of the solution was placed into separate ICH 20 mL Flint clear glass bottles that were placed in direct sunlight with illuminance of 63000 lux as measured by a digital light meter (from 1:00 PM to 3:40 PM on March 17, 2015, a sunny day with minimal clouds in Durham, NC, USA). The contents of separate bottles were checked by ^1H NMR at 1.5 min, 3 min, 10 min, 30 min, and 93 min.
The solution was analyzed by NMR as time point zero. The solution was then divided into four ICH 20 ml Flint clear glass bottles: Bottle A was exposed to air and was unprotected from the bright light; Bottle B: was flushed with nitrogen and left unprotected from the bright light; Bottle C was exposed to air but covered by aluminum-foil; and Bottle D was flushed with nitrogen and covered by aluminum foil. All bottles were placed in a photostability chamber with illuminance set to 11100 lux. The contents of each bottle were checked by ^1H NMR at 1 d, 4 d, 8 d, 14 d and 21 d using the quantification procedure described in Method 1.

By EC50 is commonly meant the midpoint of the concentration-response curve. One may read the half-life as the time in which the quantity being followed falls by half.

Read-outs that look alike come from different tables or passages of the source.

Source text for human AhR: We employed a commercially available assay for AhR ligands in which a cell line had been engineered to express a reporter gene composed of the cyp1a1 promoter driving expression of a β-lactamase reporter. AhR ligands were detected by the increased expression of β-lactamase, which was quantified using a fluorescent substrate (see Materials and methods).
Intestinal human colon adenocarcinoma LS180 cells stably transfected with a β-lactamase reporter gene downstream of the cyp1a1 promoter were obtained from Invitrogen (catalog number K1678) and were used in accordance with the protocol described at https://www.thermofisher.com/document-connect/document-connect.html?url=https%3A%2F%2Fassets.thermofisher.com%2FTFS-Assets%2FLSG%2Fmanuals%2Fgeneblazer_cyp1a1blals0180_man.pdf, but adapted to run in 384-well plates.
CYP1A1-bla-LS180 cells (Invitrogen, catalog number K1678) were suspended in assay media (OptiMEM, 1% charcoal stripped serum, 1 mM sodium pyruvate, 0.1 mM NEAA) at a density of 20000 cells/mL. The compounds were dissolved in DMSO at a concentration of 10 mM. 0.5 mL of the compound solutions were added to a 384-well black, clear bottom, cell-coat assay plate (Griener Bio-one). […] A 50 μL aliquot of cell suspension was added to each well, and the compound plate was incubated overnight at 37 °C in 5% CO2. The plate was equilibrated at room temperature for 30 min before adding 10 μL of the LiveBLAzer™ FRET B/G substrate solution (Life Technologies) to each well. The plate was incubated for 90 min at room temperature in the dark before being read on a Perkin Elmer Envision using the bottom read fluorescence program with excitation at 400 nm and detection at 460/535 nm.

For `Clc1cc2c(cc1Cl)Oc1cc(Cl)c(Cl)cc1O2` [TCDD, reference compound], the EC50 at human AhR (read-out: EC50 of standard AhR ligand in cyp1a1 reporter assay, control experiments, data not shown) was found to be 0.31 nM.
In turn, `O=C(O)c1c2[nH]c3ccccc3c2cc2[nH]c3ccccc3c12` [CICZ (9), 5,11-Dihydroindolo[3,2-b]carbazole-6-carboxylic acid] showed an EC50 on human AhR of 400 ± 100 nM. Besides, on human AhR (cyp1a1 reporter gene assay), the “potency as AhR agonist relative to FICZ (1), times less potent” value came to 40 times.
Regarding `O=Cc1c2[nH]c3ccccc3c2cc2[nH]c3ccccc3c12` [FICZ (1), 6-Formylindolo[3,2-b]carbazole], the “time to complete decomposition” value in data set [1] (Condition A: DMSO solution, bright light (11000 lux) and air) was at most 1 days. For the same compound, the “decomposition, Condition C” value in data set [1] (DMSO solution, air, protected from light with aluminum foil, over 28 d) was “further slowed, but did not prevent the decomposition”. Further, in data set [1] (DMSO solution, bottle flushed with nitrogen, 11000 lux light, over 28 d), the “decomposition, Condition B” value is listed as “much slower”. For the same compound, the “decomposition, Condition D” value in data set [1] (DMSO solution, removal of air and protection from light, over 28 d) was “slowest rate of decomposition”. Besides, the half-life at 3 mg/mL in data set [1] (DMSO-d6 solution in clear Flint glass bottle, DMSO-d6 solution, air and light, 11000 lux, clear Flint bottle, read-out: half-life of decomposition (converted)) was around 3 h. In addition, the half-life at 2.125 mg/mL in data set [1] (DMSO-d6 solution in clear Flint glass bottle, DMSO-d6 solution, air, direct sunlight 63000 lux, read-out: half-life of decomposition) is around 0.5 h. In addition, in data set [1] (pure solid), the “stability as pure solid” value is “stable”.
As for `c1ccc2c(c1)[nH]c1cc3c(cc12)[nH]c1ccccc13` [ICZ (12), reference compound], the EC50 on human AhR was found to be 30 ± 10 nM. The “decomposition rate relative to FICZ (1), times slower” value in data set [1] (DMSO-d6 solution, air and light, 11000 lux, identical conditions) is on record as “at least 10 times”.
On human AhR, `CCOC(=O)c1c2[nH]c3ccccc3c2cc2[nH]c3ccccc3c12` [Compound 10, Ethyl 5,11-dihydroindolo[3,2-b]carbazole-6-carboxylate] gave an EC50 of 160 ± 40 nM.
With `OCc1c2[nH]c3ccccc3c2cc2[nH]c3ccccc3c12` [Compound 11, (5,11-Dihydroindolo[3,2-b]carbazol-6-yl)methanol], a half-maximal effect at human AhR (EC50) was put at 160 ± 90 nM.
Consider `O=C1c2[nH]c3ccccc3c2C(=O)c2[nH]c3ccccc3c21` [Compound 13, Indolo[3,2-b]carbazole-6,12-dione], for which the EC50 at human AhR is 70 ± 15 nM. On human AhR (cyp1a1 reporter gene assay), the “decrease in potency for activation of AhR versus FICZ (1)” value was “at least 7 fold”.

Values taken from paper PMC6620467, “Gram-scale synthesis of FICZ, a photoreactive endogenous ligand of the aryl hydrocarbon receptor” (Scientific Reports, 2019).
